The data set is described as follows: precipitation test for drug-containing mixture solutions. It counts as physicochemical. To be noted: mixture solution containing crosslinked temperature-responsive viscous solution (DDK Gel: poloxamer and crosslinked alginate), FIG. 7. The source says: In FIG. 7, DDK Gel means a gel composed of poloxamer and crosslinked alginate.

Take gentamicin: the precipitate formation result is “sodium alginate was precipitated”.

Consider `CC(C)Cc1ccc(C(C)C(=O)O)cc1` (centres unmarked) [ibuprofen], for which the precipitate formation result is “formed a precipitate”.

The values are drawn from US20200086049A1, “Kit For Treating or Relieving Pain at Incision Site Following Surgical Procedure” (GENEWEL CO., LTD., priority 2017, published 2020).
